Assays:
adult skin fibroblasts [1] = experiment: myofibroblast transformation, anti-α-SMA immunocytochemistry / morphology; type: cell-based, human; conditions: co-treatment with TGF-β1 in serum-free medium; EP2 agonist 100 nM, EP4 agonist 10 nM
Text: FIGS. 1A-D show immunohistochemical staining of human adult skin fibroblasts treated with vehicle (FIG. 1A), transforming growth factor beta-1 (TGF-β1; FIG. 1B), TGF-β1+ prostaglandin receptor subtype-4 (EP4) agonist (FIG. 1C), or TGF-β1+ prostaglandin receptor subtype 2 (EP2) agonist (FIG. 1D). TGF-β1 induced transformation of myofibroblasts, which stained green with anti-alpha-smooth muscle actin (α-SMA) immunocytochemistry.
(§1) To perform the myofibroblast transformation assay, adult skin fibroblasts were cultured until 70% confluent, washed with phosphate buffered saline (PBS), and then starved in serum-free medium for 48 hours. Post starvation, cells were treated with TGF-β1 at 2 ng/ml alone or in combination with Compound V—100 nM, Compound II—10 nM or vehicle for 96 hrs in a fresh serum-free medium (TGF-beta1 from Sigma Aldrich, USA). Cell lysates were collected at the end of the study and Western blot was performed to monitor the expression of alpha-smooth muscle actin (α-SMA), the marker of myofibroblasts.
as §1, with “PBS,” for “phosphate buffered saline (PBS),”, “hrs.” for “hours.”, “TGF-beta1” for “TGF-β1”, “III—100” for “V—100”, “I—10” for “II—10”, “(TGF-β1” for “(TGF-beta1”
Normal skin fibroblasts are slim and spindle-shaped without detectable α-SMA (marker of myofibroblasts), 6 days post culturing in a serum-free medium (FIGS. 1-2).

adult skin fibroblasts [2] = experiment: myofibroblast transformation assay, Western blot of α-SMA expression; type: cell-based, human; conditions: co-treatment with TGF-β1 2 ng/ml for 96 hrs in serum-free medium; EP2 agonist 100 nM, EP4 agonist 10 nM
Protocol: as §1
Cells were washed with cold PBS three times and lysed with a lysis buffer containing phosphatase inhibitors and proteinase inhibitors (Invitrogen, San Diego, Calif.). Protein level in lysates was quantified (bicinchoninic acid (BCA) protein assay kit, Pierce, USA). For Western blot, an equal amount of protein was applied at each lane, and subjected to electrophoresis. […] Fluorescence signals associated with target proteins were detected upon exposure to fluorescence-sensitive films (Cell signaling Technology, Inc., Berverly, Mass.). […] Beta-actin, a house-keeping gene, was also quantified on the same membrane as an internal control for loading amount. […]

With `O=C(O)CCCCCCN1C(=O)CC[C@@H]1/C=C/C(O)Cc1ccccc1` (stereo partly drawn) [Compound III] the “cell size (TGF-β1-induced increase)” value (adult skin fibroblasts [1]) was “but not cell size”, the “α-SMA positive stress fibers” value (adult skin fibroblasts [1]) was “significantly reduced” and the “reduction of TGF-β1-induced α-SMA expression (Western blot)” value (adult skin fibroblasts [2]) was “approximately 50%”.
`CC1(C)C(=O)[C@H](C/C=C\CCCC(=O)O)[C@@H](/C=C/[C@H](O)CCc2sc3ccccc3c2Cl)[C@@H]1O` [Compound I] was tested, and the “cell size (TGF-β1-induced increase)” value (adult skin fibroblasts [1]) was “but not cell size”, the “α-SMA positive stress fibers” value (adult skin fibroblasts [1]) was “significantly reduced” and the “reduction of TGF-β1-induced α-SMA expression (Western blot)” value (adult skin fibroblasts [2]) was roughly 75%.

From patent US20120046332A1, “COMPOSITIONS AND METHODS FOR TREATING CORNEAL HAZE” (ALLERGAN, INC., priority 2010, published 2012)
